Source: patent publication US20060069132A1, “Azolecarboxamide herbicides” (priority 2004, published 2006)

Key:
spotted spurge = assay: Test E pre-/postemergence herbicide test; assay type: in vivo, Euphorbia maculata
Text: Seeds of plant species selected from bipinnate beggarticks (Bidens bipinnata L.), hairy beggarticks (Bidens radiata Thuill.), bermudagrass (Cynodon dactylon (L.) Pers.), Surinam grass (Urochloa decumbens (Staph) R. D. Webster, previously named Brachiaria decumbens Stapf), large crabgrass (Digitaria sanguinalis (L.) Scop.), green foxtail (Setaria viridis (L.) P. Beauv.), goosegrass (Eleusine indica (L.) Gaertn.), johnsongrass (Sorghum halepense (L.) Pers.), kochia (Kochia scoparia (L.) Schrad.), pitted morningglory (Ipomoea lacunosa L.), purple nutsedge (Cyperus rotundus L.), common ragweed (Ambrosia elatior L.), mustard (Brassica nigra (L.) W. D. J. Koch), guineagrass (Panicum maximum Jacq.), dallisgrass (Paspalum dilatatum Poir.), barnyardgrass (Echinochloa crus-galli (L). P. Beauv.), southern sandbur (Cenchrus echinatus L.), common sowthistle (Sonchus oleraceous L.), prickly sida (Sida spinosa L.), Italian ryegrass (Lolium multiflorum Lam.), common purslane (Portulaca oleracea L.), broadleaf signalgrass (Brachiaria platyphylla (Griseb.) Nash), common groundsel (Senecio vulgaris L.), common chickweed (Stellaria media (L.) Vill/Cyr.), tropical spiderwort (Commelina benghalensis L.), annual bluegrass (Poa annua L.), downy bromegrass (Bromus tectorum L.), itchgrass (Rottboellia cochinchinensis (L.) L.f.), quackgrass (Elytrigia repens (L.) Nevski), Canada horseweed (Erigeron Canadensis L.), field bindweed (Convolvulus arvensis L.), spotted spurge (Euphorbia maculata L.), common mallow (Malva sylvestris (=s silvestris) L.), and Russian thistle (Salsola kali L. ssp. Ruthenica (Iljin) Soo) were planted and treated preemergence with test chemicals formulated in a non-phytotoxic solvent mixture which included a surfactant.
At the same time, plants selected from these weed species were treated with postemergence applications of some of the test chemicals formulated in the same manner. […] Treated plants and controls were maintained in a greenhouse for 12 to 14 days, after which time all species were compared to controls and visually evaluated. […]

common chickweed = assay: Test F pre-/postemergence herbicide test; assay type: in vivo, Stellaria media
Text: (§1) Seeds of plant species selected from annual blugrass (Poa annua L.), blackgrass (Alopecurus myosuroides Huds.), catchweed bedstraw (Gallium aparine L.), common chickweed (Stellaria media (L.) Vill./Cyr.), downy bromegrass (Bromus tectorum L.), green foxtail (Setaria viridis (L.) Beauv.), Italian ryegrass (Lolium multiflorum Lam.), kochia (Kochia scoparia (L.). Schrad.), lambsquarters (Chenopodium album L.), littleseed canarygrass (Phalaris minor Retz.), pigweed (Amaranthus retroflexus L.), Russian thistle (Salsola kali L. ssp. Ruthenica (Iljin) Soo), wild buckwheat (Polygonum convolvulus L.), wild mustard (Sinapis arvensis L.), wild oat (Avena fatua L.), windgrass (Apera spica-venti (L.) Beauv.), winter barley (Hordeum vulgare L.), and wheat (Triticum aestivum L.) were planted and treated preemergence with test chemicals formulated in a non-phytotoxic solvent mixture which included a surfactant.
(§2) At the same time, plants selected from these crop and weed species were treated with postemergence applications of some of the test chemicals formulated in the same manner. Plants ranged in height from 2 to 18 cm (1- to 4-leaf stage) for postemergence treatments. Treated plants and controls were maintained in a greenhouse for 12 to 14 days, after which time all species were compared to controls and visually evaluated. Plant response ratings, summarized in Table F, are based on a scale of 0 to 100 where 0 is no effect and 100 is complete control. A dash (-) response means no test result.

lambsquarters = assay: Test F pre-/postemergence herbicide test; assay type: in vivo, Chenopodium album
Text: as §1, §2

wild oat = assay: Test F pre-/postemergence herbicide test; assay type: in vivo, Avena fatua
Text: as §1, §2

downy bromegrass = assay: Test F pre-/postemergence herbicide test; assay type: in vivo, Bromus tectorum
Text: as §1, §2

CCNC(=O)c1ccnc(NC(=O)c2cc(C(C)(C)C)nn2CC)c1 [Compound 152]
100: Plant response rating, Spurge, Spotted (spotted spurge; Preemergence, 125 g ai/ha, scale 0 to 100) | Plant response rating, Spurge, Spotted (spotted spurge; Preemergence, 500 g ai/ha, scale 0 (no effect) to 100 (complete control))
95: Plant response rating, Spurge, Spotted (spotted spurge; Postemergence, 500 g ai/ha, scale 0 to 100)

CCn1nc(C(C)(C)C)cc1C(=O)Nc1cc(C(=O)OC(C)C)c(F)cc1F [Compound 248]
98: Plant response rating (0-100), Chickweed (common chickweed; Postemergence, 125 g ai/ha)
65: Plant response rating (0-100), Chickweed (common chickweed; Postemergence, 31 g ai/ha) | Plant response rating (0-100), Chickweed (common chickweed; Postemergence, 62 g ai/ha) | Plant response rating (0-100), Oat, Wild (wild oat; Postemergence, 250 g ai/ha) | Plant response rating (0-100), Oat, Wild (wild oat; Preemergence, 250 g ai/ha) | Plant response rating (0-100), Bromegrass, Downy (downy bromegrass; Preemergence, 250 g ai/ha)
40: Plant response rating (0-100), Lambsquarters (lambsquarters; Preemergence, 31 g ai/ha) | Plant response rating (0-100), Lambsquarters (lambsquarters; Preemergence, 62 g ai/ha) | Plant response rating (0-100), Oat, Wild (wild oat; Preemergence, 31 g ai/ha) | Plant response rating (0-100), Bromegrass, Downy (downy bromegrass; Postemergence, 31 g ai/ha) | Plant response rating (0-100), Bromegrass, Downy (downy bromegrass; Postemergence, 62 g ai/ha) | Plant response rating (0-100), Bromegrass, Downy (downy bromegrass; Postemergence, 125 g ai/ha) | Plant response rating (0-100), Bromegrass, Downy (downy bromegrass; Postemergence, 250 g ai/ha)
45: Plant response rating (0-100), Oat, Wild (wild oat; Postemergence, 31 g ai/ha) | Plant response rating (0-100), Oat, Wild (wild oat; Postemergence, 62 g ai/ha) | Plant response rating (0-100), Oat, Wild (wild oat; Preemergence, 62 g ai/ha) | Plant response rating (0-100), Bromegrass, Downy (downy bromegrass; Preemergence, 62 g ai/ha)
35: Plant response rating (0-100), Lambsquarters (lambsquarters; Postemergence, 31 g ai/ha) | Plant response rating (0-100), Bromegrass, Downy (downy bromegrass; Preemergence, 31 g ai/ha)
60: Plant response rating (0-100), Lambsquarters (lambsquarters; Postemergence, 62 g ai/ha) | Plant response rating (0-100), Lambsquarters (lambsquarters; Postemergence, 125 g ai/ha) | Plant response rating (0-100), Lambsquarters (lambsquarters; Postemergence, 250 g ai/ha) | Plant response rating (0-100), Oat, Wild (wild oat; Postemergence, 125 g ai/ha)
100: Plant response rating (0-100), Chickweed (common chickweed; Postemergence, 250 g ai/ha) | Plant response rating (0-100), Chickweed (common chickweed; Preemergence, 31 g ai/ha) | Plant response rating (0-100), Chickweed (common chickweed; Preemergence, 62 g ai/ha) | Plant response rating (0-100), Chickweed (common chickweed; Preemergence, 125 g ai/ha) | Plant response rating (0-100), Chickweed (common chickweed; Preemergence, 250 g ai/ha) | Plant response rating (0-100), Lambsquarters (lambsquarters; Preemergence, 125 g ai/ha) | Plant response rating (0-100), Lambsquarters (lambsquarters; Preemergence, 250 g ai/ha)
50: Plant response rating (0-100), Oat, Wild (wild oat; Preemergence, 125 g ai/ha) | Plant response rating (0-100), Bromegrass, Downy (downy bromegrass; Preemergence, 125 g ai/ha)
